Data from a melting point compilation (Tetko et al.).

Conditions: a range is the spread between reports

melting point [°C]	Structure (SMILES)
33 to 34.5	C[C@H](O)[C@@H](C)O
215 to 216	CC(=O)Nc1ccc([N+](=O)[O-])cc1
179 to 180	NS(=O)(=O)c1ccc([N+](=O)[O-])cc1
79 to 81	CC(N)=O
-16 to -12	C1=CCCCCCC1
200 to 202	Nc1ccc(S(=O)(=O)Nc2nccs2)cc1
12 to 15	C1CCCCCCC1
91.5 to 93	c1ccc(CN(Cc2ccccc2)Cc2ccccc2)cc1
57 to 58	OCc1cccc(CO)c1
-68.9 to -68	Cc1ccc(C(C)C)cc1
166 to 167	O=C(O)c1cc([N+](=O)[O-])ccc1Cl
-92 to -91.5	CCCCOC(=O)CCC
247 to 248	c1ccc(Nc2ccc(-c3ccc(Nc4ccccc4)cc3)cc2)cc1
-110	C=C(C)C(C)(C)C
124 to 126	O=C1CCC(=O)N1
181 to 184	O=C(O)c1cccc([N+](=O)[O-])c1Cl
36.5 to 39	CC(C)(C)c1cccc(C(C)(C)C)c1O
68 to 73	Clc1ccc(SSc2ccc(Cl)cc2)cc1
50 to 55	O=C(/C=C1\Cc2ccccc21)c1ccccc1
223 to 228	NC(=O)c1ccc(-c2ccccc2)cc1
26 to 27	Cc1ccc(F)cc1[N+](=O)[O-]
24 to 26	CCCCCCCCCCCCO
85 to 86	c1ccc(Cc2ccc(-c3ccccc3)cc2)cc1

melting point [°C]	Structure (SMILES)
9 to 10	Cc1ccc(C)c(Br)c1
-23.2 to -23	C=C(C)c1ccccc1
15 to 17	CC(C)(C)c1ccc(N)cc1
250 to 254	Nc1cccc2c1C(=O)c1ccccc1C2=O
84 to 88	COc1cc(Cl)c(Cl)c(Cl)c1Cl
187 to 188	c1ccc2cc(-c3ccc4ccccc4c3)ccc2c1
94 to 97.5	O=C=Nc1ccc(N=C=O)cc1
70.5 to 71.5	O=Cc1c(Cl)cccc1Cl
170 to 175	Oc1ccc(O)cc1
-122	CCC(C(C)C)C(C)C
168 to 169	O=C(O)c1cccc(Cl)c1Cl
216 to 217	Oc1ccc2ccccc2c1-c1c(O)ccc2ccccc12
42 to 42.5	O=C(OC(=O)c1ccccc1)c1ccccc1
55 to 57	CCCCCCCCCCCCCCCCCC(C)=O
300	c1ccc2[nH]c(-c3cscn3)nc2c1
63 to 68	Cc1cc2ccccc2cn1
19 to 20.5	CC(=O)c1ccccc1
54 to 54.5	Cc1cc(C)c(C)c(C)c1C
16 to 19	ClC(c1ccccc1)c1ccccc1
58 to 59	OCCc1c[nH]c2ccccc12
-9.3 to -9	Brc1cccc(I)c1
31 to 32	CC(=O)c1ccc(C(F)(F)F)cc1
22.5 to 27	C#CCCCCCCCCCCCCCCCC

melting point [°C]	Structure (SMILES)
142 to 144	C=Cc1ccc(C(=O)O)cc1
52 to 53	CN1CCN(CCCN2c3ccccc3Sc3ccccc32)CC1
-110 to -109	CC(C)C(C)C(C)C
98 to 100	O=C(O)c1cc(F)c(F)cc1F
151 to 153	NS(=O)(=O)c1ccccc1
58 to 60	CCOc1ccc([N+](=O)[O-])cc1
133 to 134	[O-][S+](Cc1ccccc1)Cc1ccccc1
148 to 150	O=C1CCC(=O)N1Cl
52.8 to 54	O=C1C=CC(=O)O1
83 to 84	Nc1ccc(Oc2ccccc2)cc1
57.5 to 59	COc1ccccc1OC(=O)c1ccccc1
-142 to -138	COC
60.5 to 61	Clc1ccc(Cl)nc1
-128 to -127	CCCOCC
77 to 79	N#Cc1c(F)c(F)c(F)c(C#N)c1F
29.5 to 32	Cc1ccc(Cl)c(N)c1
-143 to -142	CF
66 to 67	O=C1C(Cl)=CC(=NCl)C=C1Cl
99 to 100	Cc1ccnc(N)c1
115 to 118	O=C(c1ccccc1)c1ccc(C(F)(F)F)cc1
-29.3 to -29	BrCC(Br)Br
63.4 to 65	Clc1cc(Cl)cc(Cl)c1
126 to 127	COc1ccc(NC(=O)N(C)C)cc1Cl

melting point [°C]	Structure (SMILES)
80 to 81.5	Oc1cccc(Nc2ccccc2)c1
-104	C1=CCCCC1
93 to 94	COc1cc(C#N)cc(OC)c1OC
43 to 44	CC(C)(O)C(C)(C)O
118 to 121	Nc1cc([N+](=O)[O-])ccc1Cl
242 to 245	O=C(/C=C/c1ccc2ccccc2c1)/C=C/c1ccc2ccccc2c1
-143	CCC1CCC1
262 to 263	O=C(O)C=Cc1ccc(Br)cc1
136 to 138	O=C(c1ccco1)C(O)c1ccco1 (configuration not stated)
24 to 28	O=C1CCCCCCCCC1
-41.2 to -41	SCCS
184 to 185	NC(=O)c1ccc(C(F)(F)F)cc1
-137	C=CCC(C)(C)C
99 to 102	c1ccc(COc2ccc3[nH]ccc3c2)cc1
-120 to -119	C=CCCCCC
118 to 120	COC(=O)c1ccc(O)cc1O
-39 to -35	C=CCC(=O)O
-94 to -93	C=C(C)CC(C)(C)C
25.5 to 30	CC(C)(N)CO
241 to 242	Cc1cc(C2(c3cc(C)c(O)c(Br)c3)OS(=O)(=O)c3ccccc32)cc(Br)c1O
103 to 106	O=C(O)Cc1ccc(Cl)cc1
173 to 176	CC(C(=O)O)(c1ccccc1)c1ccccc1

Structure (SMILES)	melting point [°C]
c1ccoc1	-85.6 to -85
COC(=O)c1ccccc1C(=O)OC	2 to 5.5
O=[N+]([O-])c1ccccc1	5 to 6
OC(c1ccc(Cl)cc1)(c1ccc(Cl)cc1)C(Cl)(Cl)Cl	77.5 to 78.5
Nc1ccc(Cc2ccc(N)cc2)cc1	90 to 92.5
C=Cc1ccc(Br)cc1	5 to 7.7
N#CCCCCC#N	1 to 2
Oc1ccc(Br)cc1Cl	49 to 50.5
CCCCCCCCCCBr	-30 to -29
CN1CC=C(c2ccccc2)CC1	38.5 to 40
Cc1cc(C)c(C)c(CCl)c1C	69.5 to 70.5
O=NN1CN2CN(C1)CN(N=O)C2	204 to 207
NC(=O)OCc1ccccc1	87 to 88
O=C(O)c1cc([N+](=O)[O-])cc([N+](=O)[O-])c1	205 to 206
Cc1cccc(C)c1N	8 to 12
ClCc1ccccc1Cl	-17 to -13
ClCc1ccccc1	-45 to -43
CCCCCCBr	-85 to -84.7
ClC(Cl)(Cl)c1ccccc1	-8 to -4
O=Cc1ccc(Oc2ccccc2)cc1	24.5 to 25
ClCC1CO1 (configuration not stated)	-57.2 to -57
CCCCCC#N	-80.3 to -80
Oc1cc(Cl)ccc1Cl	57 to 59
CCCCCc1cc(O)c2c(c1)OC(C)(C)c1ccc(C)cc1-2	76.5 to 77
CCCCC(CC)COC(=O)CCCCC(=O)OCC(CC)CCCC (configuration not stated)	-67.8 to -67
CC(=O)OC1CCC2(C)C(CC(=O)C3C4CCC(=O)C4(C)CCC32)C1 (configuration not stated)	164 to 165
